In US20190160030A1, “CARBOXYLIC ACIDS FOR EARLY CHILDHOOD APPLICATION” (PROPONENT BIOTECH GMBH, priority 2016, published 2019):

Tests used:
[1] = system: BALBC/J neonates epicutaneously sensitized with house dust mite (HDM); assay: Neonatal topical treatment in the epicutaneous HDM atopic dermatitis model: skin inflammatory score, TEWL, skin histology; format: in vivo, mouse
Protocol: A) Skin inflammatory scoring (0—Normal; 1—Mild inflammation, 2—Moderate inflammation; 3—Marked inflammation; 4—Severe inflammation; 5—Very severe inflammation) was performed (blinded for the experimental conditions) on 8-10 representative images of haematoxylin and eosin stained paraffin embedded skin tissue sections (4 μM).
B) Transepidermal water loss (TEWL) measurement was performed 24 hours after the end of the third epicutaneous HDM sensitization round. Three measurements were taken per mouse. n=5 mice per group.
Skin tissue from the sensitized area was fixed in formalin, embedded in paraffin and 4 μM tissue sections were stained with haematoxylin and eosin. Representative images from vehicle treated controls (left) or sodium propionate treated mice (right) are shown at a 10× magnification. Inserts are shown at a 20× magnification.
First generation BALBC/J (Charles River) neonates were topically treated on dorsal skin with 5 mg sodium propionate (50 μl of a 100 mg/ml Sodium propionate solution; Sodium propionate (Sigma Aldrich; catalogue number P5436) was dissolved in 0.9% NaCl and sterile filtered) or vehicle control (0.9% NaCl; Laboratorium G. Bichsel AG; catalogue number 1000096) on day 4 and 6 after birth. Ten days post birth epicutaneous sensitization with 15 μg house dust mite (HDM) (Greer Laboratories Inc.; catalogue number B84) was started. Epicutaneous sensitization was performed by application of gauze (Dermaplast; catalogue number 214 010) soaked in 15 μg HDM on the dorsal skin of the neonate, which was secured by a bioclusive dressing (Systagenix; catalogue number 2463) and covered with adhesive tape (Mölnlycke Health Care; catalogue number 310500) to prevent removal of the gauze and consequently HDM ingestion. The sensitization was performed for three consecutive weeks, each week consisting of five consecutive days of sensitization, with a change of the gauze on day 3 and removal of the gauze on day 5, followed by a 2 day recovery period. […]

[2] = system: BALBC/J neonates sensitized and intranasally challenged with house dust mite (HDM); assay: Lung analysis after intranasal HDM challenge in the same model: BAL cell counts, PAS mucus staining; format: in vivo, mouse; settings: topical 5 mg sodium propionate vs vehicle, n=5 mice per group
Protocol: A) Airway eosinophil counts and B) airway neutrophils counts were determined in cytospins from bronchoalveolar lavage fluid collected at 72 hours after the last intranasal challenge.
C) Mucus production in the lung was quantified as the frequency of fully periodic acid-Schiff (PAS) stained cells in representative images of small and medium airways from PAS stained paraffin embedded lung tissue sections (4 μM). n=5 mice per group.
First generation BALBC/J (Charles River) neonates were topically treated on dorsal skin with 5 mg sodium propionate (50 μl of a 100 mg/ml Sodium propionate solution; Sodium propionate (Sigma Aldrich; catalogue number P5436) was dissolved in 0.9% NaCl and sterile filtered) or vehicle control (0.9% NaCl; Laboratorium G. Bichsel AG; catalogue number 1000096) on day 4 and 6 after birth. Ten days post birth epicutaneous sensitization with 15 μg house dust mite (HDM) (Greer Laboratories Inc.; catalogue number B84) was started. […]
Mouse tracheas were canulated and bronchoalveolar lavage (BAL) was performed with 500 μl PBS 0.2% BSA solution. Total BAL cell counts were determined using a Coulter Counter, and differential cell counts were determined on cytospin preparations of the BAL fluid. […]

[3] = system: Nickel allergen contact hypersensitivity; assay: Contact hypersensitivity to Nickel allergen, topical propionate solution, clinical score of skin lesion; format: in vivo, human; settings: topical propionate solution subsequent to exposure to Nickel; worded as 'can be'
Excerpt: In this regard, human volunteers can be topically administered a propionate solution subsequent to exposure to a known allergen (e. g. Nickel); see Example 2. Symptoms of dermatitis and/or eczema can be observed, i.e. an allergic reaction. […] Accordingly, the compositions and methods of the invention as described herein in the various embodiments or aspects are, inter alia, effective following contact hypersensitivity to nickel. In addition, compositions and methods of the invention are effective in improving skin repair following an abrasion. Overall, treatment of skin with a solution containing propionate is effective at dampening skin diseases such as dermatitis and/or eczema and reducing redness of the skin, skin lesions, wrinkles, impurities and/or irregularities of the skin by improving the barrier function of the skin. […] The composition of the invention as described herein in the various embodiments or aspects can, inter alia, be applied topically and is relevant for the healthcare and cosmetics industry.
Allergic hypersensitivity can be induced through contact sensitization with Nickel allergen over a 12 hour time period. […] Clinical score of skin lesion can be determined by using protocols known in the art.

CCC(=O)[O-].[Na+] [propionate, Sodium propionate]
allergic dermatitis skin inflammation ([1]; topical 5 mg sodium propionate vs vehicle (0.9% NaCl), skin inflammatory scoring 0-5 on H&E skin sections, n=5 mice per group): protects against | epidermal thickening ([1]; topical 5 mg sodium propionate vs vehicle, H&E stained skin sections from sensitized area): protects against | disruption of skin barrier (transepidermal water loss, TEWL) ([1]; topical 5 mg sodium propionate vs vehicle, TEWL 24 hours after end of third epicutaneous HDM sensitization round, n=5 mice per group): protects against | allergic airway inflammation (airway eosinophil and neutrophil counts) ([2]; BAL fluid cytospins 72 hours after last intranasal challenge): protects against | mucus production in the lung (frequency of PAS stained cells) ([2]; PAS stained lung sections, small and medium airways): protects against | clinical score (symptoms of dermatitis and/or eczema) [3]: significantly reduced
